Test results as given in patent EP0377642B1, “HERBICIDES FOR WEED CONTROL IN RICE” (E.I. DU PONT DE NEMOURS AND COMPANY, priority 1987, dated 1989).

How the values were obtained:
[1] = test system: CI; test: Herbicidal efficacy in relation to application timing in Indonesia (Table 5); assay type: in vivo
Text: (§1) Methyl 2-[[[[(4-methoxy-6-methyl-1,3,5-triazin-2-yl)amino]carbonyl]amino]sulfonyl]benzoate (Compound 1) and mixtures thereof with other compounds were applied as a spray (using a hand sprayer) to rice (either transplanted or direct seeded) in several rice growing areas in Southeast Asia and in the U.S. Tables 1-28 contain the results of these tests and clearly exemplify the utility of this invention. The details of each application are included in the appropriate table. [drawing 2]

[2] = test system: rice; test: as above; assay type: in vivo
Text: as §1

For `COC(=O)c1ccccc1S(=O)(=O)NC(=O)Nc1nc(C)nc(OC)n1` [Compound 1, Methyl 2-[[[[(4-methoxy-6-methyl-1,3,5-triazin-2-yl)amino]carbonyl]amino]sulfonyl]benzoate], the “% CONTROL CI” value ([1]; 3 WAT, 2 GAI/HA, evaluation 1) was 0%, the “% CONTROL CI” value ([1]; 3 WAT, 2 GAI/HA, evaluation 2) was 0% and the “% CONTROL CI” value ([1]; 3 WAT, 2 GAI/HA, evaluation 3) was 0%. For the same molecule, the “% CONTROL CI” value ([1]; 3 WAT, 3 GAI/HA, evaluation 1) was 20%, the “% CONTROL CI” value ([1]; 3 WAT, 3 GAI/HA, evaluation 2) was 0% and the “% CONTROL CI” value ([1]; 3 WAT, 3 GAI/HA, evaluation 3) was 0%. For the same molecule, the “% CONTROL CI” value ([1]; 3 WAT, 4 GAI/HA, evaluation 1) was 20%, the “% CONTROL CI” value ([1]; 3 WAT, 4 GAI/HA, evaluation 2) was 0% and the “% CONTROL CI” value ([1]; 3 WAT, 4 GAI/HA, evaluation 3) was 0%. For the same molecule, the “% CONTROL CI” value ([1]; 3 WAT, 6 GAI/HA, evaluation 1) was 20%, the “% CONTROL CI” value ([1]; 3 WAT, 6 GAI/HA, evaluation 2) was 0% and the “% CONTROL CI” value ([1]; 3 WAT, 6 GAI/HA, evaluation 3) was 0%. The “% CONTROL CI” value ([1]; 3 WAT, 8 GAI/HA, evaluation 1) was 20%, the “% CONTROL CI” value ([1]; 3 WAT, 8 GAI/HA, evaluation 2) was 0% and the “% CONTROL CI” value ([1]; 3 WAT, 8 GAI/HA, evaluation 3) was 0%. The “% CONTROL CI” value ([1]; 4 WAT, 2 GAI/HA, evaluation 1) was 0%, the “% CONTROL CI” value ([1]; 4 WAT, 2 GAI/HA, evaluation 2) was 0% and the “% CONTROL CI” value ([1]; 4 WAT, 2 GAI/HA, evaluation 3) was 0%. For the same molecule, the “% CONTROL CI” value ([1]; 4 WAT, 3 GAI/HA, evaluation 1) was 0%, the “% CONTROL CI” value ([1]; 4 WAT, 3 GAI/HA, evaluation 2) was 0% and the “% CONTROL CI” value ([1]; 4 WAT, 3 GAI/HA, evaluation 3) was 0%. For the same molecule, the “% CONTROL CI” value ([1]; 4 WAT, 4 GAI/HA, evaluation 1) was 20%, the “% CONTROL CI” value ([1]; 4 WAT, 4 GAI/HA, evaluation 2) was 20% and the “% CONTROL CI” value ([1]; 4 WAT, 4 GAI/HA, evaluation 3) was 0%. The “% CONTROL CI” value ([1]; 4 WAT, 6 GAI/HA, evaluation 1) was 20%, the “% CONTROL CI” value ([1]; 4 WAT, 6 GAI/HA, evaluation 2) was 20% and the “% CONTROL CI” value ([1]; 4 WAT, 6 GAI/HA, evaluation 3) was 0%. For the same molecule, the “% CONTROL CI” value ([1]; 4 WAT, 8 GAI/HA, evaluation 1) was 20%, the “% CONTROL CI” value ([1]; 4 WAT, 8 GAI/HA, evaluation 2) was 20% and the “% CONTROL CI” value ([1]; 4 WAT, 8 GAI/HA, evaluation 3) was 0%. The “% CONTROL CI” value ([1]; 5 WAT, 2 GAI/HA, evaluation 1) was 0%, the “% CONTROL CI” value ([1]; 5 WAT, 2 GAI/HA, evaluation 2) was 0% and the “% CONTROL CI” value ([1]; 5 WAT, 2 GAI/HA, evaluation 3) was 0%. The “% CONTROL CI” value ([1]; 5 WAT, 3 GAI/HA, evaluation 1) was 50%, the “% CONTROL CI” value ([1]; 5 WAT, 3 GAI/HA, evaluation 2) was 20% and the “% CONTROL CI” value ([1]; 5 WAT, 3 GAI/HA, evaluation 3) was 0%. The “% CONTROL CI” value ([1]; 5 WAT, 4 GAI/HA, evaluation 1) was 60%, the “% CONTROL CI” value ([1]; 5 WAT, 4 GAI/HA, evaluation 2) was 30% and the “% CONTROL CI” value ([1]; 5 WAT, 4 GAI/HA, evaluation 3) was 0%. The “% CONTROL CI” value ([1]; 5 WAT, 6 GAI/HA, evaluation 1) was 60%, the “% CONTROL CI” value ([1]; 5 WAT, 6 GAI/HA, evaluation 2) was 40% and the “% CONTROL CI” value ([1]; 5 WAT, 6 GAI/HA, evaluation 3) was 0%. The “% CONTROL CI” value ([1]; 5 WAT, 8 GAI/HA, evaluation 1) was 60%, the “% CONTROL CI” value ([1]; 5 WAT, 8 GAI/HA, evaluation 2) was 60% and the “% CONTROL CI” value ([1]; 5 WAT, 8 GAI/HA, evaluation 3) was 30%. For the same molecule, the “% CONTROL RICE” value ([2]; 3 WAT, 2 GAI/HA, evaluation 1) was 0%, the “% CONTROL RICE” value ([2]; 3 WAT, 2 GAI/HA, evaluation 2) was 0% and the “% CONTROL RICE” value ([2]; 3 WAT, 2 GAI/HA, evaluation 3) was 0%. The “% CONTROL RICE” value ([2]; 3 WAT, 3 GAI/HA, evaluation 1) was 0%, the “% CONTROL RICE” value ([2]; 3 WAT, 3 GAI/HA, evaluation 2) was 0% and the “% CONTROL RICE” value ([2]; 3 WAT, 3 GAI/HA, evaluation 3) was 0%. For the same molecule, the “% CONTROL RICE” value ([2]; 3 WAT, 4 GAI/HA, evaluation 1) was 0%, the “% CONTROL RICE” value ([2]; 3 WAT, 4 GAI/HA, evaluation 2) was 0% and the “% CONTROL RICE” value ([2]; 3 WAT, 4 GAI/HA, evaluation 3) was 0%. The “% CONTROL RICE” value ([2]; 3 WAT, 6 GAI/HA, evaluation 1) was 0%, the “% CONTROL RICE” value ([2]; 3 WAT, 6 GAI/HA, evaluation 2) was 0% and the “% CONTROL RICE” value ([2]; 3 WAT, 6 GAI/HA, evaluation 3) was 0%. For the same molecule, the “% CONTROL RICE” value ([2]; 3 WAT, 8 GAI/HA, evaluation 1) was 0%, the “% CONTROL RICE” value ([2]; 3 WAT, 8 GAI/HA, evaluation 2) was 0% and the “% CONTROL RICE” value ([2]; 3 WAT, 8 GAI/HA, evaluation 3) was 0%. The “% CONTROL RICE” value ([2]; 4 WAT, 2 GAI/HA, evaluation 1) was 0%, the “% CONTROL RICE” value ([2]; 4 WAT, 2 GAI/HA, evaluation 2) was 0% and the “% CONTROL RICE” value ([2]; 4 WAT, 2 GAI/HA, evaluation 3) was 0%. The “% CONTROL RICE” value ([2]; 4 WAT, 3 GAI/HA, evaluation 1) was 0%, the “% CONTROL RICE” value ([2]; 4 WAT, 3 GAI/HA, evaluation 2) was 10% and the “% CONTROL RICE” value ([2]; 4 WAT, 3 GAI/HA, evaluation 3) was 0%. The “% CONTROL RICE” value ([2]; 4 WAT, 4 GAI/HA, evaluation 1) was 20%, the “% CONTROL RICE” value ([2]; 4 WAT, 4 GAI/HA, evaluation 2) was 20% and the “% CONTROL RICE” value ([2]; 4 WAT, 4 GAI/HA, evaluation 3) was 0%. The “% CONTROL RICE” value ([2]; 4 WAT, 6 GAI/HA, evaluation 1) was 20%, the “% CONTROL RICE” value ([2]; 4 WAT, 6 GAI/HA, evaluation 2) was 20% and the “% CONTROL RICE” value ([2]; 4 WAT, 6 GAI/HA, evaluation 3) was 0%. The “% CONTROL RICE” value ([2]; 4 WAT, 8 GAI/HA, evaluation 1) was 20%, the “% CONTROL RICE” value ([2]; 4 WAT, 8 GAI/HA, evaluation 2) was 20% and the “% CONTROL RICE” value ([2]; 4 WAT, 8 GAI/HA, evaluation 3) was 0%. The “% CONTROL RICE” value ([2]; 5 WAT, 2 GAI/HA, evaluation 1) was 10%, the “% CONTROL RICE” value ([2]; 5 WAT, 2 GAI/HA, evaluation 2) was 0% and the “% CONTROL RICE” value ([2]; 5 WAT, 2 GAI/HA, evaluation 3) was 0%. For the same molecule, the “% CONTROL RICE” value ([2]; 5 WAT, 3 GAI/HA, evaluation 1) was 10% and the “% CONTROL RICE” value ([2]; 5 WAT, 3 GAI/HA, evaluation 2) was 0%.
